# Assay results as given in patent US20180311124A1, “CLIMBAZOLE MICROCAPSULE AND HAIR CARE COMPOSITION COMPRISING SURFACTANT AND CLIMBAZOLE” (priority 2015, published 2018).
# Read-outs that look alike come from different tables or passages of the source.
# Tests used:
# M. Furfur = experiment: ZOI test comparing with PS latex (Example 5); assay type: cell-based, Malassezia furfur; conditions: ruptured by rubbing; 1 g shampoo of table 3 diluted with 3.9 g water and 0.1 g model sebum
# Method: Zone of Inhibition (ZOI) Method • 1. L&N agar plates were appropriately labelled. • 2. 0.25 ml or 1 ml of quarter strength inoculum was pipetted onto the surface of each plate. • 3. The inoculum was spread evenly over the whole surface of the plates using a sterile spreader. • 4. Filter paper discs were added, in triplicate to the control plate and plates labelled 1 to 5 unruptured and left for 30 minutes in order to soak up any moisture from the agar. • 5. 15 μl of each (diluted, unruptured) formulation were pipetted onto each of the 3 discs in the appropriate agar plate. The liquid was allowed to soak into the disc. • 6. An additional disc was placed over the original discs in the control and 1 to 5 unruptured plates and the liquid allowed to soak into the additional discs. • 7. The discs from the previously ruptured samples were added in triplicate to separate Leeming and Notman agar plates and allowed to absorb moisture from the plates. • 8. […] Any zone of inhibition observed was measured and recorded.
# The efficacy of climbazole microcapsules on the growth of M. Furfur measured using Zone of Inhibition (ZOI) when the microcapsules had been ruptured by simple rubbing to simulate hair washing was tested both for the solvent containing core shell microcapsules according to the invention and the latex particles according to the prior art. […]
# [1] = manufacturer's published literature; cited from earlier work
# [2] = Screen of perfume components, perfume mixtures and oils for ability to solubilise climbazole
# From the text: A number of perfume components, perfume mixtures and oils considered to be safe to use on scalp were screened to evaluate their ability to solubilise climbazole. Because emulsion polymerisation also encapsulates the solvent an efficient solvent is needed to get a high loading of climbazole into a microcapsule.
compound,measurement,setting,value
"CC(C)(C)C(=O)C(Oc1ccc(Cl)cc1)n1ccnc1 (racemic) [climbazole, (RS)-1-(4-Chlorophenoxy)-1-imidazol-1-yl-3,3-dimethylbutan-2-one]",Ruptured mean ZOI (mm),M. Furfur,1.00^1 mm
same,solubility,[1],"soluble in alcohol, glycols, surfactants and certain perfume oils"
CC(=O)OCc1ccccc1 [Benzyl Acetate],ratio of solvent to climbazole,[2],5:1
CCOC(=O)C=Cc1ccccc1 [Ethyl Cinnamate],ability to solubilise climbazole,[2]; solvent screened at the solvent:climbazole ratios tested,failed to solubilise it at any ratio tested
CC(O)CO (stereo not drawn) [propylene glycol],ability to solubilise climbazole,[2],failed to solubilise it at any ratio tested
Coconut oil,ability to solubilise climbazole,[2],failed to solubilise it at any ratio tested
